The values below come from patent US12714709B2, “Pharmaceutical compositions comprising 2-[(4S)-8-fluoro-2-[4-(3-methoxyphenyl)piperazin-1-yl]-3-[2-methoxy-5-(trifluoromethyl)phenyl]-4H-quinazolin-4-yl]acetate and sodium ions” (priority 2020, dated 2026).

Data set [1] is described as follows: Solubility/precipitation in water, visual inspection. As to conditions: for precipitation effects / dissolution over time, visual inspection: in water without sodium hydroxide, 20 and 100 mg/mL, over 1 week. It is filed as physicochemical. On the procedure:
A first set of letermovir samples was prepared by dissolving letermovir free base, letermovir sodium salt amorphous, letermovir sodium salt trihydrate or letermovir sodium salt monohydrate in water to prepare the solutions with the concentration of 20 mg/mL and 100 mg/mL with respect to letermovir free base in order to determine the differences in the pH immediately after dissolution and after 1 week and to check precipitation effects and solubility. […]
(§1) Procedure: The corresponding amount of water was added to each sample with further addition of the respective equivalents of 1 M aqueous NaOH to the samples of second set (Table 4, Table 5 and Table 6). No addition of NaOH was applied to the first set of samples.
(§2) The suspensions were stirred at room temperature and the pH was determined immediately after the preparation and after 1 week. The solubility and precipitation effects were also checked (Table 7, Table 8 and Table 9). […]

Data set [2] is described as follows: pH of letermovir forms and of letermovir free base with NaOH equivalents in water. It is filed as physicochemical. As to conditions: for Initial pH / pH after 1 week: no NaOH added. On the procedure:
The pH value of the samples was measured with a calibrated pH meter EUTEGH CAKTON PH/Ion 510 Serial n° 172361 with a Polilyte lab electrode. The sample is stirred and the electrode is introduced. A measurement is performed until the pH value is stable. Between measurements the electrode is thoroughly rinsed with water. The pH measurements were performed with an analysis volume of ~1-2 mL and a defined temperature of 22° C.±3° C. A 3-point calibration of the pH meter was performed on a daily basis, by using buffers with pH 7.00, pH 4.01 and pH 10.01 (Hamilton Duracal buffer).
A first set of letermovir samples was prepared by dissolving letermovir free base, letermovir sodium salt amorphous, letermovir sodium salt trihydrate or letermovir sodium salt monohydrate in water to prepare the solutions with the concentration of 20 mg/mL and 100 mg/mL with respect to letermovir free base in order to determine the differences in the pH immediately after dissolution and after 1 week and to check precipitation effects and solubility.
A second set of samples was prepared by adding different equivalents of sodium hydroxide (0.84, 0.86, 0.88 and 0.9 eq.) to letermovir free base solutions. Blank solutions with the same amounts of water and sodium hydroxide equivalents and without letermovir were also prepared for comparative reasons.
as §1, §2

Where [3] appears, read: 20 mg/ml with respect to free base in water.
Setting [4] is: 100 mg/ml with respect to free base in water.
[5] abbreviates: 20 mg/ml with respect to free base in water, Monohydrate.
Setting [6] is: 100 mg/ml with respect to free base in water, Monohydrate.
Setting [7] is: 20 mg/ml with respect to free base in water, Trihydrate.
[8] abbreviates: 100 mg/ml with respect to free base in water, Trihydrate.

Counter-ions that a name gives are not always drawn. Like-named read-outs stand apart in the source and are kept apart here.

`COc1cccc(N2CCN(C3=Nc4c(F)cccc4[C@H](CC(=O)O)N3c3cc(C(F)(F)F)ccc3OC)CC2)c1` [Free Base, 2-[(4S)-8-fluoro-2-[4-(3-methoxyphenyl)-piperazin-1-yl]-3-[2-methoxy-5-(trifluoromethyl)phenyl]-4H-quinazolin-4-yl]acetic acid]: the Solubility/Precipitation result in data set [1] (20 mg/ml with respect to free base in water, no NaOH added) is given as “Insoluble”; in data set [1] (100 mg/ml with respect to free base in water, no NaOH added), “Insoluble”. Moreover, the “precipitation effects / dissolution over time, visual inspection” value in data set [1] (listed as letermovir free base) is “did not dissolve”. The entries for the “Initial pH” value in data set [2] (setting [3]) and in data set [2] (setting [4]) were 6.1 and 6.3, respectively. In addition, the “pH after 1 week” value is recorded as 6.1 in data set [2] (setting [3]) and 6.2 in data set [2] (setting [4]). In addition, in data set [2] (in water without sodium hydroxide, 20 and 100 mg/mL, initial and after 1 week, listed as letermovir free base), the “pH values of the solutions/suspension in water” value is “around 6”.
Turning to `COc1cccc(N2CCN(C3=Nc4c(F)cccc4[C@H](CC(=O)[O-])N3c3cc(C(F)(F)F)ccc3OC)CC2)c1.[Na+]` [Sodium Salt Amorphous], in data set [1], the Solubility/Precipitation entry is recorded as “Clear solution” and the “precipitation effects / dissolution over time, visual inspection” value is given as “completely clear without precipitation effects”. In data set [2] (setting [3]), the “Initial pH” value worked out at 9.2 and the “pH after 1 week” value came out at 9.0. For the same compound, in data set [2] (setting [4]), the “Initial pH” value is 9.3 and the “pH after 1 week” value is 9.1.
`COc1cccc(N2CCN(C3=Nc4c(F)cccc4[C@H](CC(=O)O)N3c3cc(C(F)(F)F)ccc3OC)CC2)c1` [Sodium Salt Monohydrate]: the Solubility/Precipitation entry is recorded as “Clear solution” in data set [1] (20 mg/ml with respect to free base in water, no NaOH added, Monohydrate) and “Clear solution” in data set [1] (100 mg/ml with respect to free base in water, no NaOH added, Monohydrate). In data set [1] (listed as letermovir sodium salt monohydrate, Monohydrate), the “precipitation effects / dissolution over time, visual inspection” value is “completely clear without precipitation effects”. Moreover, the “Initial pH” value in data set [2] (setting [5]) and in data set [2] (setting [6]) was 9.2 in each case. Further, the “pH after 1 week” value in data set [2] (setting [5]) was 8.9; in data set [2] (setting [6]), 9.0.
On to `COc1cccc(N2CCN(C3=Nc4c(F)cccc4[C@H](CC(=O)O)N3c3cc(C(F)(F)F)ccc3OC)CC2)c1` [Sodium Salt Trihydrate], for which the Solubility/Precipitation entry in data set [1] (20 mg/ml with respect to free base in water, no NaOH added, Trihydrate) is recorded as “Clear solution”; in data set [1] (100 mg/ml with respect to free base in water, no NaOH added, Trihydrate), “Clear solution”. In data set [1] (listed as letermovir sodium dalt trihydrate, Trihydrate), the “precipitation effects / dissolution over time, visual inspection” value is “completely clear without precipitation effects”. Besides, the “Initial pH” value in data set [2] (setting [7]) and in data set [2] (setting [8]) was 9.5 throughout. Besides, the “pH after 1 week” value in data set [2] (setting [7]) and in data set [2] (setting [8]) was 9.2 throughout.
